Data on 19 compounds can be found in patent US9850256B2, “Antibacterial basic biaromatic derivatives with aminoalkoxy substitution” (priority 2014, dated 2017).

Usually MIC stands for the lowest concentration found to suppress growth. A lower MIC goes with a more susceptible organism.

Experiment in all cases: Bacterial growth minimal inhibitory concentration (microdilution, cation-adjusted Mueller-Hinton Broth)
(In general: Dilution methods test growth across graded concentrations, often in twofold steps.)

In one assay the test system is S. aureus A798. In kind it is cell-based, Staphylococcus aureus. The settings on record: Staphylococcus aureus, A798; multiply-resistant strain (methicillin- and quinolone-resistant). The procedure, abridged:
(§1)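 Broth microdilution in cation-adjusted Mueller-Hinton Broth per CLSI M7-A7; MICs in mg/L. S. aureus A798 is methicillin- and quinolone-resistant, K. pneumoniae T6474 penicillin-, cephalosporin- and quinolone-resistant; E. coli ATCC25922 and P. aeruginosa ATCC 27853 are quinolone-sensitive.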

Another assay deals with E. coli ATCC25922. In kind it is cell-based. The settings on record: Escherichia coli, ATCC25922; quinolone-sensitive strain. The method in brief: as §1
For the next assay, the system named is K. pneumoniae T6474. The class given is cell-based, Klebsiella pneumoniae. The settings on record: Klebsiella pneumoniae, T6474; multiply-resistant strain (penicillin-, cephalosporin- and quinolone-resistant). The method in brief: as §1
The test system of the next assay is P. aeruginosa ATCC 27853. The class given is cell-based, Pseudomonas aeruginosa. The settings on record: Pseudomonas aeruginosa, ATCC27853; quinolone-sensitive strain. The method in brief:
as §1

In brackets after ≈: the same amount, converted by molar mass.

As for `CN1CC[C@H]1COc1cccc(-c2cccc(CNCC[C@H]3CN(c4ccc5c(n4)NC(=O)CO5)C(=O)O3)c2)c1` [Example $104, 6-[(S)-5-(2-{[3′-((S)-1-methyl-azetidin-2-ylmethoxy)-biphenyl-3-ylmethyl]-amino}-ethyl)-2-oxo-oxazolidin-3-yl]-4H-pyrido[3,2-b][1,4]oxazin-3-one], the MIC in the assay on S. aureus A798 came to 1 mg/L (≈ 1.84 µM); against E. coli ATCC25922, 2 mg/L (≈ 3.68 µM); against K. pneumoniae T6474, 4 mg/L (≈ 7.36 µM); in the assay on P. aeruginosa ATCC 27853, 4 mg/L (≈ 7.36 µM).

`O=C1COc2ccc(N3C[C@H](CCNCc4cccc(-c5cccc(OCCN6CCCCC6)c5)c4)OC3=O)nc2N1` [Example 13, 6-[(S)-2-oxo-5-(2-{[3′-(2-piperidin-1-yl-ethoxy)-biphenyl-3-ylmethyl]-amino}-ethyl)-oxazolidin-3-yl]-4H-pyrido[3,2-b][1,4]oxazin-3-one]: the MIC with S. aureus A798 amounted to 0.5 mg/L (≈ 0.875 µM); with E. coli ATCC25922, 2 mg/L (≈ 3.5 µM); with K. pneumoniae T6474, 2 mg/L (≈ 3.5 µM); against P. aeruginosa ATCC 27853, 8 mg/L (≈ 14 µM).

On to `CN1CC(COc2cccc(-c3cccc(CNCC[C@H]4CN(c5ccc6c(n5)NC(=O)CO6)C(=O)O4)c3)n2)C1` [Example $113, 6-[(S)-5-(2-{3-[6-(1-methyl-azetidin-3-ylmethoxy)-pyridin-2-yl]-benzylamino}-ethyl)-2-oxo-oxazolidin-3-yl]-4H-pyrido[3,2-b][1,4]oxazin-3-one], for which the MIC came to 0.5 mg/L (≈ 0.918 µM) in the assay on S. aureus A798, 2 mg/L (≈ 3.67 µM) in the assay on E. coli ATCC25922, 2 mg/L (≈ 3.67 µM) against K. pneumoniae T6474 and 2 mg/L (≈ 3.67 µM) in the assay on P. aeruginosa ATCC 27853.

As for `O=C1COc2ccc(N3C[C@H](CCNCc4cccc(-c5nccc(O[C@@H]6CCNC6)n5)c4)OC3=O)nc2N1` [Example $115, 6-[(S)-2-oxo-5-(2-{3-[4-((R)-pyrrolidin-3-yloxy)-pyrimidin-2-yl]-benzylamino}-ethyl)-oxazolidin-3-yl]-4H-pyrido[3,2-b][1,4]oxazin-3-one], the MIC against S. aureus A798 was 4 mg/L (≈ 7.52 µM); in the assay with E. coli ATCC25922, 4 mg/L (≈ 7.52 µM); in the assay on K. pneumoniae T6474, 16 mg/L (≈ 30.1 µM); with P. aeruginosa ATCC 27853 it was 2 mg/L (≈ 3.76 µM).

Regarding `COc1cc(OCCN)cc(-c2ccnc(CNCC[C@H]3CN(c4ccc5c(n4)NC(=O)CO5)C(=O)O3)c2)n1` [Example $162, 6-[(S)-5-(2-{[4-(2-amino-ethoxy)-6-methoxy-[2,4′]bipyridinyl-2′-ylmethyl]-amino}-ethyl)-2-oxo-oxazolidin-3-yl]-4H-pyrido[3,2-b][1,4]oxazin-3-one], the MIC in the assay with S. aureus A798, with E. coli ATCC25922, with K. pneumoniae T6474 and in the assay on P. aeruginosa ATCC 27853 was 1 mg/L (≈ 1.87 µM) each time.

`CN1CC(Oc2cccc(-c3cccc(CNCC[C@H]4CN(c5ccc6c(n5)NC(=O)CO6)C(=O)O4)n3)n2)C1` [Example $188, 6-[(S)-5-(2-{[6′-(1-methyl-azetidin-3-yloxy)-[2,2′]bipyridinyl-6-ylmethyl]-amino}-ethyl)-2-oxo-oxazolidin-3-yl]-4H-pyrido[3,2-b][1,4]oxazin-3-one]: the MIC against S. aureus A798 was determined as 1 mg/L (≈ 1.88 µM); with E. coli ATCC25922, 1 mg/L (≈ 1.88 µM); in the assay on K. pneumoniae T6474, 2 mg/L (≈ 3.76 µM); in the assay with P. aeruginosa ATCC 27853 it was 4 mg/L (≈ 7.52 µM).

Take `CN1CC[C@@H](Oc2cccc(-c3cccc(CNCC[C@H]4CN(c5ccc6c(n5)NC(=O)CO6)C(=O)O4)c3)n2)C1` [Example $120, 6-[(S)-5-(2-{3-[6-((R)-1-methyl-pyrrolidin-3-yloxy)-pyridin-2-yl]-benzylamino}-ethyl)-2-oxo-oxazolidin-3-yl]-4H-pyrido[3,2-b][1,4]oxazin-3-one]: the minimal inhibitory concentration (MIC) against S. aureus A798 was 0.5 mg/L (≈ 0.918 µM); in the assay with E. coli ATCC25922, 1 mg/L (≈ 1.84 µM); in the assay with K. pneumoniae T6474 it was 2 mg/L (≈ 3.67 µM); in the assay on P. aeruginosa ATCC 27853, 2 mg/L (≈ 3.67 µM).

For `O=C1COc2ccc(N3C[C@H](CCNCc4cccc(-c5cccc(OCC6CNCCO6)n5)c4)OC3=O)nc2N1.O=CO` (mixture of isomers) [Example $109, 6-[(S)-5-(2-{3-[6-((RS)-1-morpholin-2-ylmethoxy)-pyridin-2-yl]-benzylamino}-ethyl)-2-oxo-oxazolidin-3-yl]-4H-pyrido[3,2-b][1,4]oxazin-3-one formate], the MIC turned out to be 0.5 mg/L in the assay on S. aureus A798, 1 mg/L in the assay on E. coli ATCC25922, 2 mg/L against K. pneumoniae T6474 and 1 mg/L in the assay on P. aeruginosa ATCC 27853.

`CN1CC[C@H](Oc2cccc(-c3cccc(CNCC[C@H]4CN(c5ccc6c(n5)NC(=O)CO6)C(=O)O4)c3)n2)C1` [Example $121, 6-[(S)-5-(2-{3-[6-((S)-1-methyl-pyrrolidin-3-yloxy)-pyridin-2-yl]-benzylamino}-ethyl)-2-oxo-oxazolidin-3-yl]-4H-pyrido[3,2-b][1,4]oxazin-3-one]: the MIC in the assay with S. aureus A798 worked out at 0.25 mg/L (≈ 0.459 µM); against E. coli ATCC25922 it was 0.5 mg/L (≈ 0.918 µM); in the assay with K. pneumoniae T6474, 0.5 mg/L (≈ 0.918 µM); in the assay on P. aeruginosa ATCC 27853, 1 mg/L (≈ 1.84 µM).

As for `C[C@H]1C[C@H](Oc2cccc(-c3cccc(CNCC[C@H]4CN(c5ccc6c(n5)NC(=O)CO6)C(=O)O4)c3)n2)CN1` [Example $131, 6-[(S)-5-(2-{3-[6-((3S,5S)-5-methyl-pyrrolidin-3-yloxy)-pyridin-2-yl]-benzylamino}-ethyl)-2-oxo-oxazolidin-3-yl]-4H-pyrido[3,2-b][1,4]oxazin-3-one], the MIC was 0.25 mg/L (≈ 0.459 µM) against S. aureus A798, 0.5 mg/L (≈ 0.918 µM) with E. coli ATCC25922, 1 mg/L (≈ 1.84 µM) with K. pneumoniae T6474 and 0.5 mg/L (≈ 0.918 µM) in the assay with P. aeruginosa ATCC 27853.

Take `NCCOc1cccc(-c2ccnc(CNCC[C@H]3CN(c4ccc5c(n4)NC(=O)CO5)C(=O)O3)c2)n1.O=CO` [Example 16, 6-[(S)-5-(2-{[6-(2-amino-ethoxy)-[2,4′]bipyridinyl-2′-ylmethyl]-amino}-ethyl)-2-oxo-oxazolidin-3-yl]-4H-pyrido[3,2-b][1,4]oxazin-3-one formate]: the MIC against S. aureus A798 came out at 0.5 mg/L; against E. coli ATCC25922, 2 mg/L; against K. pneumoniae T6474, 4 mg/L; in the assay with P. aeruginosa ATCC 27853, 0.5 mg/L.

With `NCCCOc1cccc(-c2cccc(CNCC[C@H]3CN(c4ccc5c(n4)NC(=O)CO5)C(=O)O3)c2)c1` [Example 3, 6-[(S)-5-(2-{[3′-(3-amino-propoxy)-biphenyl-3-ylmethyl]-amino}-ethyl)-2-oxo-oxazolidin-3-yl]-4H-pyrido[3,2-b][1,4]oxazin-3-one], the MIC amounted to 2 mg/L (≈ 3.86 µM) against S. aureus A798, 1 mg/L (≈ 1.93 µM) in the assay on E. coli ATCC25922, 2 mg/L (≈ 3.86 µM) against K. pneumoniae T6474 and 2 mg/L (≈ 3.86 µM) in the assay with P. aeruginosa ATCC 27853.

On to `C[C@@H](N)COc1cccc(-c2cccc(CNCC[C@H]3CN(c4ccc5c(n4)NC(=O)CO5)C(=O)O3)c2)n1` [Example 17, 6-[(S)-5-(2-{3-[6-((R)-2-amino-propoxy)-pyridin-2-yl]-benzylamino}-ethyl)-2-oxo-oxazolidin-3-yl]-4H-pyrido[3,2-b][1,4]oxazin-3-one], for which the minimal inhibitory concentration (MIC) against S. aureus A798 was determined as 0.5 mg/L (≈ 0.964 µM); in the assay on E. coli ATCC25922 it was 1 mg/L (≈ 1.93 µM); in the assay on K. pneumoniae T6474, 2 mg/L (≈ 3.86 µM); with P. aeruginosa ATCC 27853, 1 mg/L (≈ 1.93 µM).

In the case of `CN1CC[C@@H](Oc2cccc(-c3cccc(CNCC[C@@H]4CN(c5ccc6c(c5)NC(=O)CS6)C(=O)O4)c3)n2)C1` [Example $169, 6-[(R)-5-(2-{3-[6-((R)-1-methyl-pyrrolidin-3-yloxy)-pyridin-2-yl]-benzylamino}-ethyl)-2-oxo-oxazolidin-3-yl]-4H-benzo[1,4]thiazin-3-one], the MIC is 0.25 mg/L (≈ 0.447 µM) against S. aureus A798, 1 mg/L (≈ 1.79 µM) in the assay with E. coli ATCC25922, 2 mg/L (≈ 3.57 µM) in the assay on K. pneumoniae T6474 and 2 mg/L (≈ 3.57 µM) with P. aeruginosa ATCC 27853.

In the case of `CN1CC(Oc2cccc(-c3cccc(CNCC[C@@H]4CN(c5ccc6c(c5)NC(=O)CS6)C(=O)O4)c3)n2)C1` [Example $149, 6-[(R)-5-(2-{3-[6-(1-methyl-azetidin-3-yloxy)-pyridin-2-yl]-benzylamino}-ethyl)-2-oxo-oxazolidin-3-yl]-4H-benzo[1,4]thiazin-3-one], the MIC with S. aureus A798 turned out to be 0.5 mg/L (≈ 0.916 µM); against E. coli ATCC25922, 0.5 mg/L (≈ 0.916 µM); in the assay on K. pneumoniae T6474 it was 1 mg/L (≈ 1.83 µM); with P. aeruginosa ATCC 27853 it was 1 mg/L (≈ 1.83 µM).

As to `CNCCOc1cccc(-c2cccc(CNCC[C@H]3CN(c4ccc5c(n4)NC(=O)CO5)C(=O)O3)c2)c1` [Example 4, 6-[(S)-5-(2-{[3′-(2-methylamino-ethoxy)-biphenyl-3-ylmethyl]-amino}-ethyl)-2-oxo-oxazolidin-3-yl]-4H-pyrido[3,2-b][1,4]oxazin-3-one], the MIC is 2 mg/L (≈ 3.86 µM) in the assay with S. aureus A798, 1 mg/L (≈ 1.93 µM) against E. coli ATCC25922, 2 mg/L (≈ 3.86 µM) in the assay with K. pneumoniae T6474 and 2 mg/L (≈ 3.86 µM) against P. aeruginosa ATCC 27853.

For the compound `COc1cc(OCCN)cc(-c2cccc(CNCC[C@H]3CN(c4ccc5c(n4)NC(=O)CO5)C(=O)O3)c2)n1` [Example $161, 6-[(S)-5-(2-{3-[4-(2-amino-ethoxy)-6-methoxy-pyridin-2-yl]-benzylamino}-ethyl)-2-oxo-oxazolidin-3-yl]-4H-pyrido[3,2-b][1,4]oxazin-3-one], the minimal inhibitory concentration (MIC) was determined as 0.5 mg/L (≈ 0.935 µM) in the assay with S. aureus A798, 0.5 mg/L (≈ 0.935 µM) in the assay on E. coli ATCC25922, 1 mg/L (≈ 1.87 µM) against K. pneumoniae T6474 and 1 mg/L (≈ 1.87 µM) in the assay with P. aeruginosa ATCC 27853.

As for `O=C1COc2ccc(N3C[C@H](CCNCc4cccc(-c5cccc(OC6CNC6)n5)c4)OC3=O)nc2N1` [Example $107, 6-[(S)-5-(2-{3-[6-(azetidin-3-yloxy)-pyridin-2-yl]-benzylamino}-ethyl)-2-oxo-oxazolidin-3-yl]-4H-pyrido[3,2-b][1,4]oxazin-3-one], the MIC with S. aureus A798 worked out at 1 mg/L (≈ 1.94 µM); against E. coli ATCC25922 it was 0.5 mg/L (≈ 0.968 µM); against K. pneumoniae T6474 it was 2 mg/L (≈ 3.87 µM); against P. aeruginosa ATCC 27853, 0.5 mg/L (≈ 0.968 µM).

Consider `CN1CCC[C@H](Oc2cccc(-c3cccc(CNCCC4CN(c5ccc6c(n5)NC(=O)CO6)C(=O)O4)c3)n2)C1` (mixture of isomers) [Example $142, 6-[(RS)-5-(2-{3-[6-((S)-1-methyl-piperidin-3-yloxy)-pyridin-2-yl]-benzylamino}-ethyl)-2-oxo-oxazolidin-3-yl]-4H-pyrido[3,2-b][1,4]oxazin-3-one], for which the MIC against S. aureus A798 came to 0.5 mg/L; in the assay on E. coli ATCC25922, 2 mg/L; in the assay with K. pneumoniae T6474 it was 2 mg/L; in the assay with P. aeruginosa ATCC 27853 it was 2 mg/L.
